Values quoted from earlier work in US20260021105A1, “METHOD FOR TREATING PSORIASIS” (Reviva Pharmaceuticals, Inc., priority 2023, published 2026).

Key:
[1] = tested on: 5-HT2B/7; conditions: as an antagonist
[2] = molecular target: T1, 5-HT1A receptors (Homo sapiens, UniProt P08908); conditions: as partial agonist
T1 sequence (P08908 1-422): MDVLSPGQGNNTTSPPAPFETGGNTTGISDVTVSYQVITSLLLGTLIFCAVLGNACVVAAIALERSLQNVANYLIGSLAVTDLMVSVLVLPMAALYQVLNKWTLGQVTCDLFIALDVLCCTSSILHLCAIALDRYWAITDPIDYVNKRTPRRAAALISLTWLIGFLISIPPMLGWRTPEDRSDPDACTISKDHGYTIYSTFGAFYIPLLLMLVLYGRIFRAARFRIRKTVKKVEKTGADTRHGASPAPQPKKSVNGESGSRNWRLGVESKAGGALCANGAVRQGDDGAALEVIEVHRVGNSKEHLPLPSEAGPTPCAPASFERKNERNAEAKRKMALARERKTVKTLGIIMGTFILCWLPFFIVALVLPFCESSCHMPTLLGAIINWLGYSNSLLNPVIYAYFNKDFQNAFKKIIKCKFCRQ

[3] = molecular target: serotonin transporter (SERT) (Homo sapiens, UniProt P31645)
[4] = tested on: D2-4 receptors; conditions: as partial agonist
[5] = molecular target: 5-HT2A (Homo sapiens, UniProt P28223); conditions: as a weak partial agonist or neutral antagonist
Sequence of 5-HT2A (P28223 whole entry, species assumed): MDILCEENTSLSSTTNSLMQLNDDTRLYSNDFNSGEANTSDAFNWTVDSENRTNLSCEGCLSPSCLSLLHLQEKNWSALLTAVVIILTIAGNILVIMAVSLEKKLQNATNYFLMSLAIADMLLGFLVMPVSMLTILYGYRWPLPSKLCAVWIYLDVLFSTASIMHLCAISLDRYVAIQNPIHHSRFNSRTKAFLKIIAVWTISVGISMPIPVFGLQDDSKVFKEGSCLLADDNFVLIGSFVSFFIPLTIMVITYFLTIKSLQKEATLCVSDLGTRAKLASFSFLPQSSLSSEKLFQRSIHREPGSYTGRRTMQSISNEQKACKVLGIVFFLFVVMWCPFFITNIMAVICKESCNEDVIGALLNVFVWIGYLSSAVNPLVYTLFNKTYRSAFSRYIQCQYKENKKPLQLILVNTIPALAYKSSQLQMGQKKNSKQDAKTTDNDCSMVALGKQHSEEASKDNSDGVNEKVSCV

Sequence of serotonin transporter (SERT) (P31645 whole entry, species assumed): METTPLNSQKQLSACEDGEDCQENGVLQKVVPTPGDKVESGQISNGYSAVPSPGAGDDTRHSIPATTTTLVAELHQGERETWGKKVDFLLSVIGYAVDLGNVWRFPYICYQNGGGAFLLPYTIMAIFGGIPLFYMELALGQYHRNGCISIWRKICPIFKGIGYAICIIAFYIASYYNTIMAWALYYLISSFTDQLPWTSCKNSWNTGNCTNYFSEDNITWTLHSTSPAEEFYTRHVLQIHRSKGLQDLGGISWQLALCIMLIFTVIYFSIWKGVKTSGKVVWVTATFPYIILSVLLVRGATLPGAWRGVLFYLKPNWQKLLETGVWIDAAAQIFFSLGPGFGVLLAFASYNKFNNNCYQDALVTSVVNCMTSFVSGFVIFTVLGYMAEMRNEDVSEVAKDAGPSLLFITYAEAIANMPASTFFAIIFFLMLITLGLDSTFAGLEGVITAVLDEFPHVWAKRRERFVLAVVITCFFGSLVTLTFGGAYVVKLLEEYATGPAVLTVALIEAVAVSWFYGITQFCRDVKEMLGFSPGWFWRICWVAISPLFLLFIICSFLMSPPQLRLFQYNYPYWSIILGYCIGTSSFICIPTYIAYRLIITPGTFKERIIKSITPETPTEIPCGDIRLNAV

binding affinity [1]: high binding affinity
binding affinity [2]: high binding affinity
affinity [3]: moderate affinity
binding affinity [4]: high binding affinity
binding affinity [5]: high binding affinity
SMILES: O=C1COc2ccc(OCCCCN3CCN(c4cccc(Cl)c4Cl)CC3)cc2N1 [Brilaroxazine]
